According to ChEMBL document CHEMBL1146832, “N-Benzylindole-2-carboxylic acids: potent functional antagonists of the CCR2b chemokine receptor” (Bioorg Med Chem Lett, 2004):

Molecular target: C-C chemokine receptor type 2 (Homo sapiens, UniProt P41597)
Test: Inhibition of human C-C chemokine receptor type 2

C-C chemokine receptor type 2, sequence (P41597 whole entry): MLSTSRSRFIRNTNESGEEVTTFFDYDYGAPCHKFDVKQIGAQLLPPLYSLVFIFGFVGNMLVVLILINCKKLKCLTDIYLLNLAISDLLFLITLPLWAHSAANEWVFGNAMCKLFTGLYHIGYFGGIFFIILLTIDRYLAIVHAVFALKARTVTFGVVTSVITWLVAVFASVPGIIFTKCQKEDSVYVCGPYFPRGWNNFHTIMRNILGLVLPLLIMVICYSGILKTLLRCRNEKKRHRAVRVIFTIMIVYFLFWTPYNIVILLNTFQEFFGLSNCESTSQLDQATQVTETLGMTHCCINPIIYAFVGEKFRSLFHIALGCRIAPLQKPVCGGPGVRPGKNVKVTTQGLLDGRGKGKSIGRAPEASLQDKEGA

Row | Structure (SMILES) | IC50 [µM]
1 | O=C(O)c1cc2ccccc2n1S(=O)(=O)c1ccc(Cl)c(Cl)c1 | 1.02
2 | COc1ccc2cc(C(=O)O)n(Cc3ccc(Cl)c(Cl)c3)c2c1 | 2.3
3 | COc1cccc2c1cc(C(=O)O)n2Cc1ccc(Cl)c(Cl)c1 | 0.28
4 | O=C(O)c1cc2ccccc2n1Cc1cccc(Cl)c1 | 1.13
5 | O=C(O)c1cc2c(F)cccc2n1Cc1ccc(Cl)c(Cl)c1 | 0.099
6 | Nc1ccc2cc(C(=O)O)n(Cc3ccc(Cl)c(Cl)c3)c2c1 | 12.6
7 | O=C(NS(=O)(=O)c1ccccc1)c1cc2ccccc2n1Cc1ccc(Cl)c(Cl)c1 | 4.78
8 | Cc1ccc(Cn2c(C(=O)O)cc3cc(Cl)ccc32)cc1Cl | 0.12
9 | O=C(O)c1cc2cccc(Cl)c2n1Cc1ccc(Cl)c(Cl)c1 | 0.34
10 | Nc1ccc2c(c1)cc(C(=O)O)n2Cc1ccc(Cl)c(Cl)c1 | 0.5
11 | O=C(O)c1cc2ccc(Cl)cc2n1Cc1ccc(Cl)c(Cl)c1 | 0.34
12 | O=C(O)c1cc2c(C(F)(F)F)cccc2n1Cc1ccc(Cl)c(Cl)c1 | 1.19
13 | O=C(O)c1cc2cc([N+](=O)[O-])ccc2n1Cc1ccc(Cl)c(Cl)c1 | 0.39
14 | O=C(O)c1cc2c([N+](=O)[O-])cccc2n1Cc1ccc(Cl)c(Cl)c1 | 1.31
15 | O=C(NS(=O)(=O)C(F)(F)F)c1cc2cc(F)ccc2n1Cc1ccc(Cl)c(Cl)c1 | 0.37
16 | O=C(O)c1c(Cl)c2ccccc2n1Cc1ccc(Cl)c(Cl)c1 | 0.26
17 | Clc1ccc(Cn2c(-c3nn[nH]n3)cc3ccccc32)cc1Cl | 1.03
18 | NC(=O)c1cc2ccccc2n1Cc1ccc(Cl)c(Cl)c1 | 12.7
19 | CS(=O)(=O)c1ccc2c(c1)cc(C(=O)O)n2Cc1ccc(Cl)c(Cl)c1 | 2.2
20 | O=C(O)c1cc2cccc([N+](=O)[O-])c2n1Cc1ccc(Cl)c(Cl)c1 | 10.8
21 | COc1cccc2cc(C(=O)O)n(Cc3ccc(Cl)c(Cl)c3)c12 | 1.21
22 | O=C(O)c1cc2ccccc2n1Cc1ccc(Cl)c(Cl)c1 | 0.23
23 | O=C(O)c1cc2ccccc2n1Cc1ccc(-c2ccccc2)cc1 | > 50
24 | O=C(O)c1cc2ccccc2n1Cc1ccc(Cl)cc1 | 1.36
25 | N#Cc1cccc(Cn2c(C(=O)O)cc3cc(Cl)ccc32)c1 | 2
26 | O=C(O)c1c(C(=O)O)n(Cc2ccc(Cl)c(Cl)c2)c2ccccc12 | 0.096
27 | CS(=O)(=O)c1cccc2c1cc(C(=O)O)n2Cc1ccc(Cl)c(Cl)c1 | 3.88

Row | Structure (SMILES) | IC50 [µM]
28 | COc1ccc(Cn2c(C(=O)O)cc3cc(Cl)ccc32)cc1 | 5.77
29 | O=C(O)c1cc2cc(Cl)ccc2n1Cc1cccc([N+](=O)[O-])c1 | 0.65
30 | O=C(O)c1cc2cccc(C(F)(F)F)c2n1Cc1ccc(Cl)c(Cl)c1 | 1.27
31 | O=C(O)c1cc2cc(Cl)ccc2n1Cc1ccc(Cl)c(Cl)c1 | 0.11
32 | O=C(O)c1cc2ccc(F)cc2n1Cc1ccc(Cl)c(Cl)c1 | 0.09
33 | O=C(O)c1cc2ccc([N+](=O)[O-])cc2n1Cc1ccc(Cl)c(Cl)c1 | 1.64
34 | Cc1ccc(Cn2c(C(=O)O)cc3cc(Cl)ccc32)cc1C | 0.22
35 | O=C(O)c1cc2ccc(C(F)(F)F)cc2n1Cc1ccc(Cl)c(Cl)c1 | 1.05
36 | O=C(O)c1cc2cc(Cl)ccc2n1Cc1ccc(OCc2ccccc2)cc1 | > 50
37 | O=C(O)c1cccc(Cn2c(C(=O)O)cc3cc(Cl)ccc32)c1 | 27
38 | O=C(O)c1cc2ccccc2n1Cc1ccccc1 | 1.7
39 | COc1c(C(=O)O)n(Cc2ccc(Cl)c(Cl)c2)c2ccccc12 | 0.77
40 | Nc1cccc2c1cc(C(=O)O)n2Cc1ccc(Cl)c(Cl)c1 | 0.23
41 | O=C(O)c1cc2c(-c3ccccc3)cccc2n1Cc1ccc(Cl)c(Cl)c1 | 0.64
42 | O=C(O)c1cc2cc(-c3ccccc3)ccc2n1Cc1ccc(Cl)c(Cl)c1 | 8.6
43 | CS(=O)(=O)NC(=O)c1cc2ccccc2n1Cc1ccc(Cl)c(Cl)c1 | 6.09
44 | O=C(O)c1cc2ccccc2n1C(=O)c1ccc(Cl)c(Cl)c1 | > 50
45 | O=C(O)c1cc2c(Cl)cccc2n1Cc1ccc(Cl)c(Cl)c1 | 0.15
46 | COc1cccc(Cn2c(C(=O)O)cc3cc(Cl)ccc32)c1 | 3.01
47 | N#Cc1c(C(=O)O)n(Cc2ccc(Cl)c(Cl)c2)c2ccccc12 | 0.3
48 | O=C(O)c1cc2cc(Cl)ccc2n1Cc1ccccc1Cl | 1.48
49 | O=C(O)c1cc2cc(C(F)(F)F)ccc2n1Cc1ccc(Cl)c(Cl)c1 | 0.17
50 | O=C(O)c1cc2ccc(-c3ccccc3)cc2n1Cc1ccc(Cl)c(Cl)c1 | 12.3
51 | COc1ccc2c(c1)cc(C(=O)O)n2Cc1ccc(Cl)c(Cl)c1 | 0.41
52 | O=C(O)c1cc2cc(F)ccc2n1Cc1ccc(Cl)c(Cl)c1 | 0.056
53 | O=C(O)c1cc2cccc(F)c2n1Cc1ccc(Cl)c(Cl)c1 | 0.125
